Like-named read-outs stand apart in the source and are kept apart here.
How the values were obtained:
Assay type in all cases: cell-based
[1] = target: T1, CDK4-NanoLuc fusion with CCND1 in 293T or 293 cells (Homo sapiens, UniProt P11802); assay: NanoBRET Target Engagement (TE) Intracellular Kinase Assay, CDK4/CCND1; details: NanoBRET TE intracellular kinase assay, 2-hour incubation, read-out: NanoBRET-CDK4/D1 IC50
T1 construct: host or cells: 293T (ATCC CRL-3216) or 293 (ATCC CRL-1573)
Method: (§1) Inhibitory effects of compounds were measured in NanoBRET TE Intracellular Kinase Assay. […] Cells were co-transfected with 1 μg/mL of CDK-NanoLuc Fusion Vector (Promega; NV2701 for CDK1, NV2781 for CDK2, NV2811 for CDK4, NV2841 for CDK6) and 1 μg/mL of the corresponding Cyclin Expression Vector (Promega; NV2601 for CCNB1, NV2641 for CCNE1, NV2621 for CCND1, NV2631 for CCND3) using FuGENE HD Transfection Reagent (Promega; E2311). […] 20 uL/well of 3× Intracellular TE Nano-Glo Substrate/Inhibitor (Promega; N2162) were added to 384-well plates and incubated for 3 minutes at room temperature. NanoBRET signals (donor emission wavelength at 450 nm, acceptor emission wavelength at 610 nm) were measured using Envision plate reader (PerkinElmer). NanoBRET ratio was calculated by: BRET Ratio=raw signal for acceptor/raw signal for donor. Dose response curve normalized to DMSO control was plotted using four-parameter logistic model for IC50 calculation.

[2] = target: T2, CDK2-NanoLuc fusion with CCNE1 in 293T or 293 cells (Homo sapiens, UniProt P24941); assay: NanoBRET Target Engagement (TE) Intracellular Kinase Assay, CDK2/CCNE1; details: NanoBRET TE intracellular kinase assay, 2-hour incubation, read-out: NanoBRET-CDK2/E1 IC50
T2 construct: host or cells: 293T (ATCC CRL-3216) or 293 (ATCC CRL-1573)
Method: as §1

[3] = tested on: Phospho-Rb Ser807/811 in OVCAR3 cells; assay: OVCAR3 Phospho-Rb Ser807/811 HTRF assay; details: OVCAR3 cells, Phospho-Rb Ser807/811 HTRF, 1 hour incubation, read-out: pRb-OVCAR3 IC50
Method: Cells were trypsinized and resuspended in 1 mM hydroxyurea (Sigma; H8627), 90% RPMI and 10% fetal bovine serum. […] Dose response curve normalized to DMSO control was plotted using four-parameter logistic model for IC50 calculation.

T1 sequence (P11802 whole entry, the tested form may be a part): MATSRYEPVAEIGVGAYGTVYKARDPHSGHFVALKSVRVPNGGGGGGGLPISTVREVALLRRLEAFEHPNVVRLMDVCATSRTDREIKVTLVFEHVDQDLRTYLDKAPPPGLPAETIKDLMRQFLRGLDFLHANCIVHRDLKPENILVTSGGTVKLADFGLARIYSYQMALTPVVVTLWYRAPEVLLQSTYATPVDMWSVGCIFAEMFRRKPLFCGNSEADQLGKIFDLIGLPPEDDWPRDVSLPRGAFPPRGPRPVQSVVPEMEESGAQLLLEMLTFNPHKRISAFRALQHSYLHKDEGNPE
T1 sequence (P24385 whole entry partner, the tested form may be a part): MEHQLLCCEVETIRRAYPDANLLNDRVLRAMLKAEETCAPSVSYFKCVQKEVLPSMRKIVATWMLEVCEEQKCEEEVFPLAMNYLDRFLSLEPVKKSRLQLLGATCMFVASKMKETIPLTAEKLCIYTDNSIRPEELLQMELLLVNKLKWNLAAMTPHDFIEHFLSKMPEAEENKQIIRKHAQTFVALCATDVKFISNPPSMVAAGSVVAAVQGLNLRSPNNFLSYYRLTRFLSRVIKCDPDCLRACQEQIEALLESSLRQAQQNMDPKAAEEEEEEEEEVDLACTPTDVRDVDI

| IC50 [1] | IC50 [2] | IC50 ([3]; Homo sapiens, OVCAR-3, 1 h) | IC50 [3] | Structure (SMILES) |
| --- | --- | --- | --- | --- |
| 2.89 µM | 0.00347 µM | 0.0361 µM | – | COc1cc(O)c(C=O)c(OCC(=O)Nc2cc([C@H]3CC[C@@H](OC(=O)N(C(C)C)C(C)C)C3)[nH]n2)c1 [Compound 151] |
| 0.459 µM | 0.0677 µM | – | 2.23 µM | COc1cc(O)c(C=O)c2c1CC(C(=O)Nc1cc([C@H]3CC[C@@H](OC(=O)NN(C)C)C3)n[nH]1)C2 (single isomer, unassigned) [Compound 269, (1R,3S)-3-(3-((*)-4-formyl-5-hydroxy-7-methoxy-2,3-dihydro-1H-indene-2-carboxamido)-1H-pyrazol-5-yl)cyclopentyl 2,2-dimethylhydrazine-1-carboxylate] |
| 2.58 µM | 0.00199 µM | 0.0377 µM | – | COc1cc(O)c(C=O)c(OCC(=O)Nc2cc([C@H]3CC[C@@H](OC(=O)N4C[C@@H](F)[C@H](F)C4)C3)n[nH]2)c1 [Compound 124] |
| 2.84 µM | 0.00118 µM | 0.0142 µM | – | COc1cc(O)c(C=O)c(OCC(=O)Nc2cc([C@H]3CC[C@@H](OC(=O)N4CCCCC4)C3)[nH]n2)c1 [Compound 234, (1R,3S)-3-(3-(2-(2-formyl-3-hydroxy-5-methoxyphenoxy)acetamido)-1H-pyrazol-5-yl)cyclopentyl piperidine-1-carboxylate] |
| 5 µM | 0.00118 µM | 0.0279 µM | – | CCCCNC(=O)O[C@@H]1CC[C@H](c2cc(NC(=O)COc3cc(OC)cc(O)c3C=O)n[nH]2)C1 [Compound 181] |
| > 10 µM | 0.0216 µM | 0.295 µM | – | COc1cc(O)c(C=O)c(OCC(=O)Nc2cc([C@H]3CC[C@@H](OC(=O)NCc4cnn(C)c4)C3)[nH]n2)c1 [Compound 137] |
| 7.02 µM | 0.00376 µM | 0.0533 µM | – | COc1cc(O)c(C=O)c(OCC(=O)Nc2cc([C@H]3CC[C@@H](OC(=O)NCC(F)F)C3)[nH]n2)c1 [Compound 142] |
| 2.44 µM | 0.00199 µM | 0.0185 µM | – | COc1cc(O)c(C=O)c(OCC(=O)Nc2cc([C@H]3CC[C@@H](OC(=O)N(C)CC(F)F)C3)[nH]n2)c1 [Compound 121] |
| > 10 µM | 0.025 µM | 0.127 µM | – | COc1cc(O)c(C=O)c(OCC(=O)Nc2cc([C@H]3CC[C@@H](OC(=O)N4CC5(CCN5C)C4)C3)[nH]n2)c1 [Compound 191] |
| 1.24 µM | 0.00194 µM | 0.0163 µM | – | CCOc1cc(O)c(C=O)c(OCC(=O)Nc2cc([C@H]3CC[C@@H](OC(=O)NC4(C)CC4)C3)[nH]n2)c1 [Compound 115] |
| > 10 µM | 0.337 µM | 0.368 µM | – | COc1cc(O)c(C=O)c(OCC(=O)Nc2cc([C@H]3CC[C@@H](OC(=O)NCCN(C)C)C3)[nH]n2)c1 [Compound 188] |
| 0.236 µM | 0.00201 µM | 0.0126 µM | – | COc1cc(O)c(C=O)c2c1CC(C(=O)Nc1cc([C@H]3CC[C@@H](OC(=O)NC(C)(C)C)C3)[nH]n1)C2 (single isomer, unassigned) [Compound 283, (1R,3S)-3-(3-((*)-4-formyl-5-hydroxy-7-methoxy-2,3-dihydro-1H-indene-2-carboxamido)-1H-pyrazol-5-yl)cyclopentyl tert-butylcarbamate] |
| 1.42 µM | 0.00222 µM | 0.0169 µM | – | COc1cc(O)c(C=O)c(OCC(=O)Nc2cc([C@H]3CC[C@@H](OC(=O)NC4(CF)CC4)C3)[nH]n2)c1 [Compound 136] |
| 7 µM | 0.00679 µM | 0.07 µM | – | COc1cc(O)c(C=O)c(OCC(=O)Nc2cc([C@H]3CC[C@@H](OC(=O)N4C[C@@H]5CC[C@H]4CO5)C3)[nH]n2)c1 [Compound 157] |
| 0.864 µM | 0.00369 µM | 0.0249 µM | – | COc1cc(O)c(C=O)c(O[C@H](C)C(=O)Nc2cc([C@H]3CC[C@@H](OC(=O)NC4(C)CC4)C3)[nH]n2)c1 [Compound 130, (1R,3S)-3-(3-((R)-2-(2-formyl-3-hydroxy-5-methoxyphenoxy)propanamido)-1H-pyrazol-5-yl)cyclopentyl (1-methylcyclopropyl)carbamate] |
| 0.697 µM | 0.00325 µM | 0.0125 µM | – | COc1cc(O)c(C=O)c(OCC(=O)Nc2cc([C@H]3CC[C@@H](OC(=O)N4CCC[C@H](C#N)C4)C3)[nH]n2)c1 [Compound 131, (1R,3S)-3-{5-[2-(2-formyl-3-hydroxy-5-methoxyphenoxy)acetamido]-2H-pyrazol-3-yl}cyclopentyl (3S)-3-cyanopiperidine-1-carboxylate] |
| 2.34 µM | 0.00236 µM | 0.029 µM | – | C#CCN(CC)C(=O)O[C@@H]1CC[C@H](c2cc(NC(=O)COc3cc(OC)cc(O)c3C=O)n[nH]2)C1 [Compound 144] |

| IC50 [1] | IC50 [2] | IC50 ([3]; Homo sapiens, OVCAR-3, 1 h) | IC50 [3] | Structure (SMILES) |
| --- | --- | --- | --- | --- |
| 8.44 µM | 0.00211 µM | 0.0169 µM | – | COc1cc(O)c(C=O)c(OCC(=O)Nc2cc([C@H]3CC[C@@H](OC(=O)NCCC(F)(F)F)C3)[nH]n2)c1 [Compound 175] |
| 0.668 µM | 0.00326 µM | 0.0107 µM | – | COc1cc(O)c(C=O)c2c1C[C@@H](C(=O)Nc1cc([C@H]3CC[C@@H](OC(=O)NC(C)C)C3)[nH]n1)C2 [Compound 174, (1R,3S)-3-(3-((S)-4-formyl-5-hydroxy-7-methoxy-2,3-dihydro-1H-indene-2-carboxamido)-1H-pyrazol-5-yl)cyclopentyl isopropylcarbamate] |
| 6.04 µM | 0.00306 µM | 0.0706 µM | – | COc1cc(O)c(C=O)c(OCC(=O)Nc2cc([C@H]3CC[C@@H](OC(=O)NCc4ccccc4)C3)[nH]n2)c1 [Compound 170] |
| 1.54 µM | 0.00312 µM | 0.0534 µM | – | COc1cc(O)c(C=O)c(OCC(=O)Nc2cc([C@H]3CC[C@@H](OC(=O)N4C[C@H](F)C[C@@H]4C)C3)n[nH]2)c1 [Compound 125] |
| 3.89 µM | 0.00227 µM | 0.148 µM | – | COc1cc(O)c(C=O)c(OCC(=O)Nc2cc([C@H]3CC[C@@H](OC(=O)N[C@H]4C[C@@H](C)C4)C3)[nH]n2)c1 [Compound 150] |
| 2.97 µM | 0.00264 µM | 0.0134 µM | – | COc1cc(O)c(C=O)c(OCC(=O)Nc2cc([C@H]3CC[C@@H](OC(=O)N[C@@H](C)CF)C3)[nH]n2)c1 [Compound 120] |
| 6.48 µM | 0.0554 µM | 0.101 µM | – | COc1cc(O)c(C=O)c(OCC(=O)Nc2cc([C@H]3CC[C@@H](OC(=O)N4C[C@H]5C[C@@H]4CS5(=O)=O)C3)n[nH]2)c1 [Compound 118] |
| 7.92 µM | 0.0128 µM | 0.383 µM | – | COc1cc(O)c(C=O)c(OCC(=O)Nc2cc([C@H]3CC[C@@H](OC(=O)Nc4ccncc4)C3)[nH]n2)c1 [Compound 165] |
| 6.3 µM | 0.00765 µM | 0.0235 µM | – | COc1cc(O)c(C=O)c(OCC(=O)Nc2cc([C@H]3CC[C@@H](OC(=O)N(C)CCC#N)C3)[nH]n2)c1 [Compound 155] |
| 5 µM | 0.00937 µM | 0.0378 µM | – | COc1cc(O)c(C=O)c(OCC(=O)Nc2cc([C@H]3CC[C@@H](OC(=O)N4CCN(C)CC4)C3)[nH]n2)c1 [Compound 195] |
| 3.8 µM | 0.00326 µM | 0.0371 µM | – | COc1cc(O)c(C=O)c(OCC(=O)Nc2cc([C@H]3CC[C@@H](OC(=O)N[C@@H](C)C(F)F)C3)[nH]n2)c1 [Compound 134] |
| > 10 µM | 0.00735 µM | 0.0803 µM | – | COc1cc(O)c(C=O)c(OCC(=O)Nc2cc([C@H]3CC[C@@H](OC(=O)NN(C)C)C3)[nH]n2)c1 [Compound 160] |
| 4.16 µM | 0.00802 µM | 0.035 µM | – | COc1cc(O)c(C=O)c(OCC(=O)Nc2cc([C@H]3CC[C@@H](OC(=O)N4C5CC4CN(C)C5)C3)[nH]n2)c1 [Compound 190] |
| 4.84 µM | 0.0106 µM | 0.0431 µM | – | COc1cc(O)c(C=O)c(OCC(=O)Nc2cc([C@H]3CC[C@@H](OC(=O)NC(C)(C)C#N)C3)[nH]n2)c1 [Compound 159] |
| 3.47 µM | 0.00309 µM | 0.0374 µM | – | Cc1cc(O)c(C=O)c(OCC(=O)Nc2cc([C@H]3CC[C@@H](OC(=O)N4CCC4(C)C)C3)[nH]n2)c1 [Compound 162] |
| 5.6 µM | 0.00208 µM | 0.0541 µM | – | COc1cc(O)c(C=O)c(OCC(=O)Nc2cc([C@H]3CC[C@@H](OC(=O)NCC4CCC4)C3)[nH]n2)c1 [Compound 178] |

| Structure (SMILES) | IC50 [1] | IC50 [2] | IC50 ([3]; Homo sapiens, OVCAR-3, 1 h) | IC50 [3] |
| --- | --- | --- | --- | --- |
| COc1cc(O)c(C=O)c(OCC(=O)Nc2cc([C@H]3CC[C@@H](OC(=O)N4CC5CC(C4)N5C)C3)[nH]n2)c1 [Compound 189] | > 10 µM | 0.159 µM | 0.198 µM | – |
| COc1cc(O)c(C=O)c(O[C@H](C)C(=O)Nc2cc([C@H]3C[C@@H](OC(=O)N4C5COCC4C5)C3)[nH]n2)c1 [Compound 193] | > 10 µM | 0.0116 µM | 0.0847 µM | – |

Source: patent US20250289789A1, “REVERSIBLE LYSINE COVALENT MODIFIERS OF CDK2 AND USES THEREOF” (Terremoto Biosciences, Inc., priority 2023, published 2025)
